# Source: US6603023B2 (priority 1996, dated 2003)
# Values joined by “and” are separate entries in the source; they are usually repeats but may differ in a detail not shown here. Identical values can stand only once. Counter-ions that a name gives are not always drawn. Like-named read-outs stand apart in the source and are kept apart here. Marks after values point to notes of the source that are not given here.
# Columns and labels:
# B16 Melanoma = assay type: in vivo, B6D2F1 mice
# [1] = Toxicity in normal nude mice; assay type: in vivo, athymic nude mice; conditions: for mice died of toxicity: epothilone B 0.6 mg/kg QDx4 i.p.
# Method: For in vivo studies, paclitaxel in Cremophor-EtOH was further diluted with DMSO as needed. Vinblastine sulfate (Velban) (Eli Lilly & Co. Indianapolis, Ind.), and doxorubicin or adriamycin HCl (DX or Adr) (Pharmacia, Columbus, Ohio) in saline were diluted with DMSO as needed. DMSO was used as a vehicle for epothilones. Each mouse received ≦40 μL DMSO in all experiments.
# The toxicity of EpoB and dEpoB was compared in normal athymic nude mice on the daily i.p. schedule. EpoB at 0.6 mg/kg, QDX4, i.p. led to lethality in all eight mice. […] Similar leukopenia was found with paclitaxel. Some obstructive fecal mass in the large intestine was noted following Epo treatments in the preliminary study.
# CCRF-CEM = test: Drug combination analysis (combination index, XTT, 72 h); assay type: cell-based; conditions: Homo sapiens, median-effect parameter, read-out: Dm (IC50)
# DC-3F/ADII = test: SRB cytotoxicity, DC-3F/ADII; assay type: cell-based, hamster; conditions: Mesocricetus auratus, DC3F
# Method: The DC-3F hamster lung fibroblast cell line and its actinomycin D-selected sublines (DC-3F/ADII and DC-3F/ADX) were obtained from the Memorial Sloan-Kettering Cancer Center (MSKCC).
# The drug-resistant cell lines were continuously cultured in the presence of the selecting agent, AD, DX, VBL or VM to maintain the drug resistant phenotypes. […] All cells were cultured in RPMI 1640-10% FBS at 37° C. 5% CO2 (see below).
# The cytotoxicity of the drug toward the monolayer cell cultures (such as DC-3F, MCF-7, SK-N-As and sublines) was determined in 96-well microtiter plates by the SRB method as described by Skehan and co-workers (Skehan, P., et al., J. Natl. Cancer Inst. 1990, 82, 1107-1112) for measuring the cellular protein content. Cultures were fixed with trichloroacetic acid and then stained for 30 min with 0.4% suforhodamine B dissolved in 1% acetic acid. Unbound dye was removed by acetic acid washes, and the protein-bound dye was extracted with an unbuffered Tris base (tris(hydroxy-methyl)aminomethane) for determination of absorbance at 570 nm in a 96-well microtiter plate reader. The experiments were carried out in duplicate. Each run entailed six to seven concentrations of the tested drugs. Data were analyzed with the median-effect plot (Chou, T.-C. & Talalay, P. T. (1984) Adv. Enzyme Regul. 22, 27-55) using a previously described computer program (Chou, J., & Chou T.-C. 1987, Dose-effect analysis with microcomputers: Quantitation of ED50, synergism, antagonism, low-dose risk, reception-ligand binding and enzyme kinetics, IBM-PC software and manual, Biosoft, Cambridge, U.K.).
# Concerning Table 3, experiments were carried out using the cell lines DC-3F (parent hamster lung cells), DC-3F/ADII (moderate multidrug-resistant (MDR) cells) and DC-3F/ADX (very strong MDR cells).
# [2] = tested on: HT-29 Colon Adenocarcinoma; test: HT-29 xenograft; assay type: in vivo, nude mice; conditions: dEpoB 30 mg/kg Q2D x 6, Taxol 15 mg/kg Q2D x 6
# CCRF-CEM/Taxol® = test: CCRF-CEM/Taxol xenograft, i.v. 6 h infusion; assay type: in vivo, nude mice; conditions: CCRF/Taxol Leukemia; dEpoB 30 mg/kg Q2D x 6, Taxol 15 mg/kg Q2D x 6
# Text: Treatment on days 6, 8, 10, 12 and 14.
# Treatment on days 19, 21, 23, 25, 27, 39, 41, 43, 45 and 47.
# [3] = tested on: Human Lymphoblastic Leukemia CCRF-CEM; test: CCRF-CEM xenograft in nude mice, i.v. 6 h infusion; assay type: in vivo; conditions: for Average Body Weight, Day 21: initial weight
# [4] = tested on: human ovarian UL3-C tumor; test: UL3-C ovarian tumor xenograft
# [5] = 0.4 mg/kg QD × 6 from day 1, day 5
# [6] = 0.4 mg/kg QD × 6 from day 1, day 9
# [7] = 0.4 mg/kg QD × 6 from day 1, day 11
# [8] = 0.8 mg/kg QD × 5 from day 1, day 5
# [9] = 0.8 mg/kg QD × 5 from day 1, day 7
# [10] = 0.8 mg/kg QD × 5 from day 1, day 11
# [11] = Dose DesoxyepoB 40, Taxol 20, i.v. infusion 6 hr on day 21,23,25,27
# [12] = Table 26, Dose Q2D x 4: DesoxyepoB 40, Taxol 20
# [13] = UL3-C Ovary, dEpoB 30 mg/kg Q2D x 5, Taxol 15 mg/kg Q2D x 5
# [14] = dEpoB 30, Taxol 20 mg/kg, i.v. infusions on day 19,21,23,25,27
structure (smiles),measurement,setting,value
"C/C(=C\c1csc(C)n1)[C@@H]1C[C@@H]2O[C@]2(C)CCC[C@H](C)[C@H](O)[C@@H](C)C(=O)C(C)(C)[C@@H](O)CC(=O)O1 [Epothilone B, epothilone B]",# Mice Died,B16 Melanoma; 0.4 mg/kg QD × 6 from day 1,1/8
same,Average weight change,"B16 Melanoma; 0.4 mg/kg QD × 6 from day 1, day 3",-0.2 g
same,Average Tumor Volume (T/C),B16 Melanoma; [5],1.08
same,Average weight change,B16 Melanoma; [5],-0.6 g
same,Average weight change,"B16 Melanoma; 0.4 mg/kg QD × 6 from day 1, day 7",-1.1 g
same,Average Tumor Volume (T/C),B16 Melanoma; [6],1.27
same,Average weight change,B16 Melanoma; [6],-3.4 g
same,Average Tumor Volume (T/C),B16 Melanoma; [7],1.07
same,Average weight change,B16 Melanoma; [7],-3.9 g
same,mice died of toxicity,B16 Melanoma; 0.4 mg/kg QDx6 from day 1 (FIG. 44),1 of 8
same,Average weight change,"B16 Melanoma; 0.8 mg/kg QD × 5 from day 1, day 3",0 g
same,Average Tumor Volume (T/C),B16 Melanoma; [8],0.57
same,Average weight change,B16 Melanoma; [8],-0.8 g
same,Average Tumor Volume (T/C),B16 Melanoma; [9],0.89
same,Average weight change,B16 Melanoma; [9],-3.1 g
same,Average weight change,"B16 Melanoma; 0.8 mg/kg QD × 5 from day 1, day 9",-4.7 g
same,Average Tumor Volume (T/C),B16 Melanoma; [10],0.21
same,Average weight change,B16 Melanoma; [10],-4.7 g
same,mice died,B16 Melanoma; 0.8 mg/kg QDx5 from day 1 (FIG. 44),5 of 8
same,Died,"[1]; 0.6 mg/kg QD × 4, 8 mice",8
same,Disappearance Duration,"[1]; 0.6 mg/kg QD × 4, 8 mice",8
same,Number of mice died,"[1]; 0.6 mg/kg, QD × 4, i.p., 8 mice",8*
same,body weight course,[1]; EpoB 0.6 mg/kg QDx4 i.p.,steady decreases in body weight until death
same,decrease in lymphocytes,"[1]; EpoB 0.6 mg/kg or dEpoB 25 mg/kg, QDx4, i.p., preliminary",43%
same,mice died of toxicity,[1]; 8 mice,all eight and 8 of 8
same,mice died of toxicity,"[1]; 8 mice, listed as EpoB",all eight
same,reduction in average body weight,[1]; epothilone B 0.6 mg/kg i.p. for 4 days,33%
"CC[C@]1(O)C[C@@H]2CN(CCc3c([nH]c4ccccc34)[C@@](C(=O)OC)(c3cc4c(cc3OC)N(C)[C@H]3[C@@](O)(C(=O)OC)[C@H](OC(C)=O)[C@]5(CC)C=CCN6CC[C@]43[C@@H]65)C2)C1 [Vinblastine, Vinblastine sulfate]",IC50,CCRF-CEM,0.61 nM
same,IC50,DC-3F/ADII,78.9 nM
"CC(=O)O[C@H]1C(=O)[C@@]2(C)[C@H]([C@H](OC(=O)c3ccccc3)[C@]3(O)C[C@H](OC(=O)[C@H](O)[C@@H](NC(=O)c4ccccc4)c4ccccc4)C(C)=C1C3(C)C)[C@]1(OC(C)=O)CO[C@@H]1C[C@@H]2O [Taxol ®, paclitaxel]",Lowest Average Tumor Size (T/C),[2],0.01 T/C
same,Tumor Disappearance,[2],0
same,Lowest Average Tumor Size (T/C),CCRF-CEM/Taxol®,1.09 T/C
same,Tumor Disappearance,CCRF-CEM/Taxol®,0
same,Tumor Disappearance,"[3]; CCRF/CEM Leukemia, dEpoB 30 mg/kg Q2D x 5, Taxol 15 mg/kg Q2D x 5",2/2
same,"Average Body Weight Changes, Day 23",[3]; [11],-0.1 g
same,"Average Body Weight Changes, Day 25",[3]; [11],-1.9 g
same,"Average Body Weight Changes, Day 27",[3]; [11],-2.9 g
same,"Average Body Weight Changes, Day 29",[3]; [11],-3.0 g
same,"Average Body Weight Changes, Day 31",[3]; [11],-3.6 g
same,"Average Body Weight Changes, Day 33",[3]; [11],-2.6 g
same,"Average Body Weight Changes, Day 35",[3]; [11],-0.5 g
same,"Average Body Weight Changes, Day 37",[3]; [11],+1.2 g
same,"Average Body Weight Changes, Day 39",[3]; [11],+1.3 g
same,"Average Body Weight Changes, Day 41",[3]; [11],+2.1 g
same,"Average Tumor Size (T/C), Day 21",[3]; [11],1.17 T/C
same,"Average Tumor Size (T/C), Day 23",[3]; [11],0.78 T/C
same,"Average Tumor Size (T/C), Day 25",[3]; [11],0.44 T/C
same,"Average Tumor Size (T/C), Day 27",[3]; [11],0.11 T/C
same,"Average Tumor Size (T/C), Day 29",[3]; [11],0 T/C
same,"Average Tumor Size (T/C), Day 31",[3]; [11],0 T/C
same,"Average Tumor Size (T/C), Day 33",[3]; [11],0 T/C
same,"Average Tumor Size (T/C), Day 35",[3]; [11],0 T/C
same,"Proportion of Tumor Disappearance (n/total), Day 21",[3]; [11],0/4
same,"Proportion of Tumor Disappearance (n/total), Day 23",[3]; [11],0/4
same,"Proportion of Tumor Disappearance (n/total), Day 25",[3]; [11],0/4
same,"Proportion of Tumor Disappearance (n/total), Day 27",[3]; [11],1/4
same,"Proportion of Tumor Disappearance (n/total), Day 29",[3]; [11],4/4
same,"Proportion of Tumor Disappearance (n/total), Day 31",[3]; [11],4/4
same,"Proportion of Tumor Disappearance (n/total), Day 33",[3]; [11],4/4
same,"Proportion of Tumor Disappearance (n/total), Day 35",[3]; [11],1/4
same,"Proportion of Tumor Disappearance (n/total), Day 37",[3]; [11],0/4
same,"Proportion of Tumor Disappearance (n/total), Day 39",[3]; [11],0/4
same,"Proportion of Tumor Disappearance (n/total), Day 41",[3]; [11],0.4
same,"Average Body Weight Change, Day 23",[3]; [12],-0.1 g
same,"Average Body Weight Change, Day 25",[3]; [12],-1.9 g
same,"Average Body Weight Change, Day 27",[3]; [12],-2.9 g
same,"Average Body Weight Change, Day 29",[3]; [12],-3.0 g
same,"Average Body Weight Change, Day 31",[3]; [12],-3.6 g
same,"Average Tumor Size (T/C), Day 23",[3]; [12],0.78 T/C
same,"Average Tumor Size (T/C), Day 25",[3]; [12],0.44 T/C
same,"Average Tumor Size (T/C), Day 27",[3]; [12],0.11 T/C
same,"Average Tumor Size (T/C), Day 29",[3]; [12],0 T/C
same,"Average Tumor Size (T/C), Day 31",[3]; [12],0 T/C
same,Tumor Disappearance,[3]; [12],4/4
same,"Average Body Weight, Day 21",[3]; [12],29.0 g
same,"Average Body Weight, Day 21",[3]; [11],29.0 g
same,IC50,CCRF-CEM,1.09 nM
same,IC50,DC-3F/ADII,3200 nM
same,Lowest Average Tumor Size (T/C),[4]; [13],0.04 T/C
same,Tumor Disappearance,[4]; [13],0
same,"Average Body Weight (change), Day 33",[4]; [14],-2.7 g
same,"Average Body Weight Change, Day 27",[4]; [14],-2.9 g
same,"Average Body Weight Change, Day 29",[4]; [14],-3.3 g
same,"Average Body Weight Change, Day 31",[4]; [14],-2.4 g
same,"Average Tumor Size (T/C), Day 27",[4]; [14],0.10 T/C
same,"Average Tumor Size (T/C), Day 29",[4]; [14],0.08 T/C
same,"Average Tumor Size (T/C), Day 31",[4]; [14],0.03 T/C
same,"Average Tumor Size (T/C), Day 33",[4]; [14],0.04 T/C
same,"Average Body Weight, Day 19","[4]; initial weight, dEpoB 30, Taxol 20 mg/kg, i.v. infusions on day 19,21,23,25,27",31.3 g
